Assay results reported in PubChem BioAssay AID2305 (GlaxoSmithKline (GSK), 2010).
pIC50: −log10 of the molar value. Where “and” joins values, the source holds several entries; their conditions need not be identical. Identical values can stand only once.

Test system: P. falciparum 3D7 growth, pLDH absorbance
Assay: blood-stage malaria parasite growth potency – strain 3D7, dose response (AID 2305)

`CC(C)(C)CCN1CCC(CNC(=O)c2cc(-c3cccc(C(F)(F)F)c3)cs2)C1` (stereo unspecified) was tested, and the pIC50 was 6.05.

Compound `COc1ccc2nccc(N3CCC(NCCNCc4cc5c(cn4)OCCO5)C3)c2n1` (stereo unspecified) has a pIC50 of 6.24.

`CC(CN1CCN(C)CC1)C(=O)Nc1ccc(-c2ccc(-c3nc4ccc(F)cc4[nH]3)cc2)cc1` (stereo unspecified) showed a pIC50 of 6.10.

`CNc1nc(Nc2ccccc2C)nc2ccccc12` showed a pIC50 of 6.36.

`CN1CCN(Cc2cc(NC(=O)c3ccc(-c4ccc(Cl)cc4Cl)cc3)ccc2-c2ccccc2)CC1` was tested, and the pIC50 was 6.01.

Work on `Cc1sc2nc(CSc3ccccc3)nc(N3CCN(CC(=O)NC4CC4)CC3)c2c1C` yielded a pIC50 of 6.34.

Compound `CCNC(=NCc1ccccc1)NCCCCCCNC(=NCc1ccccc1)NCC` has a pIC50 of 6.15.

For `COc1cccc(-c2cc(C(=O)NC3CCC(N4CCC(c5ccccc5C)CC4)CC3)[nH]n2)c1` (stereo unspecified), the pIC50 was 5.95.

With `CCCCCn1c(Sc2ccc(C#N)c([N+](=O)[O-])c2)nnc1-c1ccc(OC)cc1` the pIC50 was 5.94.

Compound `O=C(Nc1cccc(-c2nn3ccccc3c2-c2ccnc(Nc3ccc(Cc4ccncc4)cc3)n2)c1)c1c(F)cccc1F` has a pIC50 of 6.52.

Work on `Cc1ccc(NC(=O)c2cccc(CN3CCCN(Cc4cccc(O)c4)CC3)c2)cc1` yielded a pIC50 of 5.88.

For `Cc1ccccc1C1CCN(C2CCC(NC(=O)/C=C/c3cc(F)ccc3C(F)(F)F)CC2)CC1` (stereo unspecified), the pIC50 was 6.02.

Work on `O=C1CCCN1CCCNCc1cccc(-c2ccc(-c3nc4ccc(C(F)(F)F)cc4[nH]3)s2)c1` yielded a pIC50 of 6.35.

`CS(=O)(=O)c1ccc(CCNCc2ccc(-c3ccc(CN(C(=O)c4ccc(Cl)nc4)C4CCN(Cc5ccccc5)CC4)cc3)nc2)cc1` was tested, and the pIC50 was 6.10.

In the case of `COc1cc(Cc2cnc(N)nc2N)cc(OCCCCCC(N)=O)c1OC`, the pIC50 was 5.92.

For `CCOC(=O)C1=C(C)N=c2sc(=Cc3cc(Cl)ccc3O)c(=O)n2C1c1ccc(OC)cc1` (stereo unspecified), the pIC50 was 6.12.

In the case of `COc1ccc2c(c1)CC(NCc1ccc(-c3ccc4nc[nH]c4c3)cc1)C2` (stereo unspecified), the pIC50 was 6.06.

For `COc1cccc2cc(C(=O)N[C@@H](CC(C)C)C(=O)N[C@H](/C=N/NC(=O)Cc3cccnc3)CCc3ccccc3)oc12`, the pIC50 was 6.02.

`O=C1CSc2ccc(CNC3CCN(CCc4c(Cl)cnc5ccc(F)cc45)CC3)nc2N1` gave a pIC50 of 6.37.

`CC[C@@]1(O)C(=O)OCc2c1cc1n(c2=O)Cc2c-1nc1cc3c(cc1c2CN1CCOCC1)OCO3` gave a pIC50 of 6.02.

`CCn1c(C(C)C)cc2c3c(N)nc(N)nc3ccc21` was tested, and the pIC50 was 8.00.

With `CCOc1ccc2nc(C)cc(NN=Cc3ccncc3)c2c1` the pIC50 was 6.00.

`Cc1cccc2[nH]c(-c3ccc(-c4ccc(CN5CCN(C6CCN(C)CC6)CC5)cc4)s3)nc12` was tested, and the pIC50 was 6.85.

`CC(C)c1ccc(CN(C)CCCCNC(=O)c2ccc(NC(=O)c3ccc(Cl)cc3)cc2)cc1` was tested, and the pIC50 was 6.00.

Compound `CC(=NNC(N)=O)C1=C(O)C(c2ccccc2)N(C2CCCCC2)C1=O` (stereo unspecified) has a pIC50 of 7.52.

`Cc1nnc(-c2ccc3ccccc3c2)c2cn(-c3cccc([N+](=O)[O-])c3)nc12` gave a pIC50 of 6.00.

`COc1ccc2nccc([C@@H](O)CN3CCC(NCc4nc5cc(F)c(F)cc5[nH]4)CC3)c2c1` showed a pIC50 of 6.28.

`Cc1cc(N[C@@H](CC(C)C)C(=O)NCCc2ccccc2)nc(NCCc2cccs2)n1` gave a pIC50 of 5.92.

In the case of `COc1ccc(NC(=O)NCC2CCCN(CCCCCNC(=O)/C=C/c3ccc(Cl)c(Cl)c3)C2)c(OC)c1` (stereo unspecified), the pIC50 was 6.07.

Work on `Clc1ccc(Nc2nc3ccc(Cl)cc3nc2Nc2ccc(Cl)cc2)cc1` yielded a pIC50 of 6.89.

For `O=C(Nc1ccc(-c2ccc(-c3nc4ccccc4[nH]3)cc2)cc1)Nc1ccc(Cl)c(Cl)c1`, the pIC50 was 7.00.

`C[C@H](NC(=O)c1c(CN2CCC(N3CCCCC3)CC2)c(-c2ccccc2)nc2cc(O)ccc12)C1CCCCC1` gave a pIC50 of 6.12.

`Cc1cccc(CNc2nccc3[nH]c4ccccc4c23)c1` was tested, and the pIC50 was 5.72.

`Cc1cc2[nH]c(-c3ccc(C(=O)NCCCN4CCN(c5cccc(Cl)c5)CC4)cc3)nc2cc1Cl` was tested, and the pIC50 was 6.11.

With `CNCCNC(=O)C1Cc2c([nH]c3c(C)cccc23)C(c2ccc(Cl)c(Cl)c2)N1` (stereo unspecified) the pIC50 was 6.14.

`CC(=O)N(Cc1ccc(-c2ccc(CNCCc3ccccc3)cc2)cc1)C1CCN(Cc2ccccc2)CC1` gave a pIC50 of 6.03.

In the case of `CCOCc1cn(CC(=O)c2ccc(-c3ccccc3)cc2)c(C)nc1=N`, the pIC50 was 6.49.

Compound `COc1ccc(S(=O)(=O)N(c2cc(Br)cc3c2OCC3)S(=O)(=O)c2ccc(OC)c(N3CCN(C)CC3)c2)cc1N1CCN(C)CC1` has a pIC50 of 5.93.

Work on `Cc1cccc(CN2CCC(CNC(=O)c3cc4c(-c5ccccc5F)nn(C)c4s3)CC2)c1` yielded a pIC50 of 5.96.

Compound `CCCCN1CCN(CCCCNc2c3ccccc3nc3ccccc23)CC1` has a pIC50 of 6.77.

In the case of `COc1ccc2nccc([C@@H](O)CN3CCC(NCc4cc5ccccc5s4)CC3)c2c1`, the pIC50 was 6.46.

`O=C(NCCCN1CCC(N2CCCCC2)CC1)C1=Cc2cc(Br)ccc2OC1` showed a pIC50 of 6.07.

`O=C(/C=C/c1ccc(Cl)c(Cl)c1)NCCCCCCN1CCN(C(=O)Nc2ccc(OC(F)F)cc2)CC1` showed a pIC50 of 6.17.

For `CC1CN(Cc2ccc(-c3ccc(-c4nc5ccccc5[nH]4)cc3)cc2)CC(C)O1` (stereo unspecified), the pIC50 was 6.28.

For `O=C(CCNc1ccnc(NCCc2ccc(F)cc2)n1)Nc1ccccc1`, the pIC50 was 6.08.

Work on `CO/C(=C\C=C\c1cc2cc(Cl)c(Cl)cc2[nH]1)C(=O)NCCCN1CCN(C2CCCCC2)CC1` yielded a pIC50 of 6.00.

`CCN(CC)CCCNc1ncc2c(-c3ccc(NC(=O)Nc4cc(C(F)(F)F)ccc4F)c(F)c3)nn(C)c2n1` was tested, and the pIC50 was 6.57.

Work on `COc1cc(SC)ccc1C(=O)N1CC(C)CC(C)C1` (stereo unspecified) yielded a pIC50 of 6.46.

Compound `CNCCN(C)C(=O)Oc1c(Cl)c(C)nc(C)c1-c1ccc(Oc2ccc(OC(F)(F)F)cc2)cc1` has a pIC50 of 6.89.

`NC(N)=Nc1nc(-c2cccc(NC(=O)NCCc3c[nH]c4ccc(OCc5ccccc5)cc34)c2)cs1` showed a pIC50 of 6.09.

`O=c1[nH]c(NCCCNCc2cc3c(Cl)cc(Cl)cc3[nH]2)nc2ccccc12` gave a pIC50 of 6.00.

`COc1ccc(NC(=O)CCNc2ccnc(NCCc3ccc(F)cc3)n2)cc1` was tested, and the pIC50 was 6.00.

In the case of `Cc1cc(NCCC(=O)NCCOc2ccccc2)nc(NCCc2ccc(F)cc2)n1`, the pIC50 was 6.03.

Compound `NC(N)=Nc1nc(-c2ccc(NCc3ccc(CNc4cccc(-c5csc(N=C(N)N)n5)c4)cc3)cc2)cs1` has a pIC50 of 6.51.

`CCCCCN1CCCC1CNS(=O)(=O)c1ccc(C(=O)Nc2cccc(C(F)(F)F)c2)cc1` (stereo unspecified) was tested, and the pIC50 was 5.97.

`CNC(=O)c1cnc(Nc2ccc(N3CCN(C)CC3)cc2)nc1Nc1cccc(OC(C)C)c1` showed a pIC50 of 6.82.

`CN1CCCC1CCOc1ccc2c(c1)N(C(=O)Nc1cc(Br)cc(C(F)(F)F)c1)CC2` (stereo unspecified) showed a pIC50 of 6.60.

Compound `COc1ccc(Nc2nccc(NCC(O)c3ccc(C(F)(F)F)cc3)n2)cc1` (stereo unspecified) has a pIC50 of 6.26.

Work on `COc1ccc(NC(=O)/C=C/c2ccccc2Cl)cc1OCCN1CCC(N2CCCCC2)CC1` yielded a pIC50 of 6.05.

`Cc1cccc(OCC2CCN(c3ncc(C(=O)NC4CC4)cc3Cl)CC2)c1` gave a pIC50 of 5.88.

`CC(=O)Nc1ccc(CN(Cc2ccc(F)cc2)Cc2cccc(Oc3ccccc3)c2)cc1` was tested, and the pIC50 was 6.03.

Compound `O=C(Nc1ccc(OC2CCN(Cc3ccc(F)cc3)C2)cc1)c1ccco1` (stereo unspecified) has a pIC50 of 5.98.

In the case of `CCN1CCC(NCc2ccc(-c3ccc(Cl)s3)cc2)CC1`, the pIC50 was 6.03.

With `Cn1c(=O)n(C)c2cc(CNCCNc3ccnc4cc(Cl)ccc34)ccc21` the pIC50 was 6.85.

`O=C(NC(CCCN1CCC(c2ccccc2)CC1)c1ccc(Cl)c(Cl)c1)c1cc(C(F)(F)F)cc(C(F)(F)F)c1` (stereo unspecified) gave a pIC50 of 6.07.

`COc1cc2c(cc1OC)CC(NCc1ccc(-c3ccc4nc[nH]c4c3)cc1)C2` showed a pIC50 of 6.07.

Compound `O=C(/C=C/c1ccc(Cl)c(Cl)c1)NCCCCCN1CCCN(C(=O)Nc2ccc(OC(F)F)cc2)CC1` has a pIC50 of 6.08.

With `Cc1ccccc1Cn1c(CN2CCC(C(=O)NC3CC3)CC2)cc2ccccc21` the pIC50 was 6.32.

With `COc1ccc(C(=O)CCC(=O)N(Cc2ccc(-c3ccc(CNCc4cccnc4)cn3)cc2)C2CCN(Cc3ccccc3)CC2)cc1F` the pIC50 was 6.01.

With `c1cncc(CNc2ncc(-c3ccsc3)c(-c3nccs3)n2)c1` the pIC50 was 5.86.

`O=C(/C=C/c1ccc(Cl)c(Cl)c1)NC1CCC(CN2CCC(c3nc4ccccc4n3CCCO)CC2)CC1` (stereo unspecified) showed a pIC50 of 6.24.

`Cc1[nH]c(C)c(-c2ccc(Oc3ccc(Cl)cc3)cc2)c(=O)c1Br` gave a pIC50 of 6.23.

`Cc1cc(F)ccc1[C@H]1C[C@H](N2CCOCC2)CCN1C(=O)N(C)[C@@H](C)c1cc(C(F)(F)F)cc(C(F)(F)F)c1` gave a pIC50 of 6.12.

For `CN1CCC(NCc2ccc(S(=O)(=O)Nc3ccc(Oc4cccc(Cl)c4)cc3)cc2)CC1`, the pIC50 was 6.13.

`CC(Nc1ccnc2cc(Cl)ccc12)c1ccc(S(N)(=O)=O)cc1` (stereo unspecified) showed a pIC50 of 6.03.

Compound `Cc1cc(NCCC(=O)NCc2cccc(F)c2)nc(NCCc2ccc(F)cc2)n1` has a pIC50 of 5.76.

In the case of `O=C(/C=C/c1ccc(Cl)c(Cl)c1)NCCCCCN1CCC(NC(=O)Nc2ccc(C(F)(F)F)cc2)CC1`, the pIC50 was 6.12.

`Cc1cc(NC(=O)c2sc3ccccc3c2O)no1` showed a pIC50 of 6.09.

With `CCC(C)NC(=O)Nc1ccc(-c2cccc(-c3nc4c(C)cccc4[nH]3)c2)cc1` (stereo unspecified) the pIC50 was 6.72.

Work on `CS(=O)(=O)N1CC2(CCN(CCC(NC(=O)NCc3ccccc3Cl)c3ccc(Cl)c(Cl)c3)CC2)c2ccccc21` (stereo unspecified) yielded a pIC50 of 5.95.

`Ic1cc(Nc2ncnc3ccsc23)ccc1OCc1ccccc1` was tested, and the pIC50 was 6.11.

`COc1ccc(-n2ncc(C(=O)N3CCC4(C3)C(=O)N(c3ccccc3)c3ccccc34)c2C)cc1` (stereo unspecified) showed a pIC50 of 6.03.

With `Cc1nc2nc(N)nc(N)c2c(C)c1Cc1ccc([N+](=O)[O-])cc1` the pIC50 was 6.36.

`NCc1cccc(-c2cccc(CNC3CCN(Cc4ccccc4)CC3)c2)c1` showed a pIC50 of 6.14.

`CCCCCCN(CCCCCC)CC(O)c1cc(-c2ccc(Cl)cc2)nc2c(C)cc(C)cc12` (stereo unspecified) was tested, and the pIC50 was 7.15.

`CC(C)c1sc(-c2ccc(C(C)(C)C)cc2)nc1C(=O)NCCCN1CCCC1=O` was tested, and the pIC50 was 6.17.

In the case of `CN1CCN(c2cccc(-c3nnc(-c4ccc(OCC(=O)NCc5ccc(C(F)(F)F)cc5)c([N+](=O)[O-])c4)o3)c2)CC1`, the pIC50 was 6.18.

Compound `COc1cccc(CN2CCC3(CC2)CN(C(=O)Nc2ccc(Cl)c(Cl)c2)C3)c1` has a pIC50 of 6.12.

Work on `COc1cc(CCN=C(N)/C=C/c2ccc(Cl)cc2)ccc1Cl` yielded a pIC50 of 6.62.

In the case of `N#Cc1ccc(-c2ccc(C(=O)NCCCCN3CCC(c4cn(CCO)c5ccccc45)CC3)cc2)cc1`, the pIC50 was 6.02.

For `Fc1cccc(COc2ccc(Nc3ncnc4ccc(-c5nnc(C(F)(F)F)o5)cc34)cc2Cl)c1`, the pIC50 was 6.24.

With `CCN(CC)CCN1C(=O)c2oc3ccc(F)cc3c(=O)c2C1c1cccc(Cl)c1` (stereo unspecified) the pIC50 was 6.28.

`COc1ccc2nc(-c3ccc(C(=O)NCCCN4CCN(c5cc(Cl)ccc5OC)CC4)cc3OC)[nH]c2c1` was tested, and the pIC50 was 6.06.

In the case of `O=C(/C=C/c1cccc(Cl)c1)NC1CCC(CN2CCC(c3c[nH]c4ccccc34)CC2)CC1` (stereo unspecified), the pIC50 was 6.12 and 6.14.

`COc1ccccc1CCN(C)CCN1CCC(NC(=O)c2ccc(-c3ccc(C(F)(F)F)cc3)cc2)CC1` gave a pIC50 of 5.99.

In the case of `CCc1cc(-c2onc(C(F)(F)F)c2-c2ccccc2)c(O)cc1OC`, the pIC50 was 6.10.
